Reference: patent US20230356105A1, “TETRAAZADODECANE BASED CHELATING AGENTS FOR SEPARATION OF RARE EARTH ELEMENTS AND METHOD THEREFOR” (Ustav Organicke Chemie a Biochemie AV CR V.V.I., priority 2020, published 2023)
“And” between values parts separate entries of the source, which are not always exact repeats. Identical values can stand only once.

What was measured:
Type in all cases: physicochemical
[1] = Separation of binary mixture of rare-earth metals by precipitation using L1, MOPS pH 8.5 (Example 8); details: supernatant
Method: Analogous to Example 7), the well plate was then centrifuged and concentrations of the metals were determined using ICP-OES. The resulting concentrations of both metals in the supernatants and their ratios are summarized in […]

[2] = Separation of Tb/Dy mixture by repeated precipitation using L5 and α-HIBA (Example 20); details: for Precipitate concentration [mM] Dy / precipitate concentration [mm] Tb: dissolved to 200 μL
Method: Analogous to Example 19, three reaction mixtures were prepared with the following changes: the rare-earth elements were Tb and Dy, and 0.5 molar equivalents (5 mM reaction concentration) of α-HIBA were used. Otherwise, the experiment was run analogously to Example 19.
The resulting absolute concentrations of both metals in the supernatants and precipitates, as well as calculated values of the separation factor Dy/Tb according to the formula from Example 11), are summarized in Table 14. […] The average separation factor was 2.32.

[3] = Use of additives to improve separation of Nd/Dy mixture by precipitation with L5 (Example 18); details: no additive (0 mM); 11 mM L5
Method in brief: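 Mixtures held 5 mM NdCl3, 5 mM DyCl3 and 500 mM MOPS pH 7 with L5, plus additives at variable concentration adjusted to pH 7. Stirred 18 h in sealed cuvettes, then centrifuged; precipitate redissolved in 1 M HCl. Nd and Dy measured in supernatant and precipitate by ICP-OES.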

[4] = Separation of Nd/Pr/Tb/Dy mixture by precipitation using L5 (Example 21); details: for precipitate after 20 hrs: dissolved to 500 μL; for precipitate after 20 hrs composition / solution after 20 hrs composition: percent molar
Method: Stock solutions were pipetted into 4 mL glass vials to prepare reaction mixtures with concentrations as follows: • 1. 38.5 mM (1.1 eq) chelator L5 • 2. 35 mM (1 eq) total LnCl3 content (from a stock solution containing a mixture of Ln=Nd, Pr, Tb, and Dy, in a ratio of 3.3:1:1:1, Nd:Pr:Tb:Dy) • 3. 1750 mM (50 eq) MOPS pH=7
The total reaction volume was 3.2 mL. A PTFE-coated stir bar was added to this vial, and the vial was capped and stirred with the temperature maintained at 40° C. by use of an aluminium heating block on a magnetic stirrer. After 20 hours, a 500 μL aliquot of the reaction mixture was taken from the vial. This was centrifuged in a 2 mL plastic Eppendorf centrifuge vial, and the supernatant was carefully pipetted from this and transferred to a new set of tubes. The precipitate was dissolved by addition of 500 μL 1 M HCl, and the absolute concentration of Nd, Pr, Tb, and Dy in both the supernatants and precipitates was determined by ICP-OES.
The percent molar composition of each phase is also provided, showing the minimal selectivity in precipitation under these conditions.

O=C(O)CN1CCN(CC(=O)O)CCN(Cc2ccccc2)CCN(CC(=O)O)CC1 [L1, 2,2′,2″-(10-benzyl-1,4,7,10-tetraazacyclododecane-1,4,7-triyl)triacetic Acid]
[mM] M1 ([1]; M1=Ce, M2=Er): 0.280 mM
[mM] M1 ([1]; M1=Ce, M2=Tm): 0.425 mM
[mM] Tm ([1]; M1=Ce, M2=Tm): 2.035 mM
M1/Er ([1]; M1=Ce): 0.51
[mM] M1 ([1]; M1=Dy, M2=Er): 0.338 mM
[mM] M1 ([1]; M1=Dy, M2=Tm): 0.362 mM
[mM] Tm ([1]; M1=Dy, M2=Tm): 2.382 mM
M1/Er ([1]; M1=Dy): 0.34
[mM] M1 ([1]; M1=Er, M2=Er): 4.969 mM
[mM] M1 ([1]; M1=Er, M2=Tm): 2.759 mM
[mM] Tm ([1]; M1=Er, M2=Tm): 3.368 mM
M1/Er ([1]; M1=Er): 1.00
[mM] Er ([1]; M1=Eu, M2=Er): 0.680 mM
[mM] M1 ([1]; M1=Eu, M2=Er): 0.244 mM
[mM] M1 ([1]; M1=Eu, M2=Tm): 0.244 mM
[mM] Tm ([1]; M1=Eu, M2=Tm): 2.091 mM
M1/Er ([1]; M1=Eu): 0.36
[mM] Er ([1]; M1=Gd, M2=Er): 0.972 mM
[mM] M1 ([1]; M1=Gd, M2=Er): 0.402 mM
[mM] M1 ([1]; M1=Gd, M2=Tm): 0.254 mM
[mM] Tm ([1]; M1=Gd, M2=Tm): 1.814 mM
M1/Er ([1]; M1=Gd): 0.41
[mM] M1 ([1]; M1=Ho, M2=Er): 0.496 mM
[mM] M1 ([1]; M1=Ho, M2=Tm): 0.521 mM
[mM] Tm ([1]; M1=Ho, M2=Tm): 2.329 mM
M1/Er ([1]; M1=Ho): 0.60
[mM] M1 ([1]; M1=La, M2=Er): 0.368 mM
[mM] M1 ([1]; M1=La, M2=Tm): 0.616 mM
[mM] Tm ([1]; M1=La, M2=Tm): 2.425 mM
M1/Er ([1]; M1=La): 0.57
[mM] M1 ([1]; M1=Lu, M2=Er): 7.607 mM
[mM] M1 ([1]; M1=Lu, M2=Tm): 7.337 mM
[mM] Tm ([1]; M1=Lu, M2=Tm): 4.588 mM
M1/Er ([1]; M1=Lu): 1.67
[mM] Er ([1]; M1=Nd, M2=Er): 0.692 mM
[mM] M1 ([1]; M1=Nd, M2=Er): 0.280 mM
[mM] M1 ([1]; M1=Nd, M2=Tm): 0.315 mM
[mM] Tm ([1]; M1=Nd, M2=Tm): 1.892 mM
M1/Er ([1]; M1=Nd): 0.40
[mM] M1 ([1]; M1=Pr, M2=Er): 0.210 mM
[mM] M1 ([1]; M1=Pr, M2=Tm): 0.298 mM
[mM] Tm ([1]; M1=Pr, M2=Tm): 2.016 mM
M1/Er ([1]; M1=Pr): 0.32
[mM] M1 ([1]; M1=Sc, M2=Er): 5.191 mM
[mM] M1 ([1]; M1=Sc, M2=Tm): 5.087 mM
[mM] Tm ([1]; M1=Sc, M2=Tm): 4.448 mM
M1/Er ([1]; M1=Sc): 1.16
[mM] Er ([1]; M1=Sm, M2=Er): 0.734 mM
[mM] M1 ([1]; M1=Sm, M2=Er): 0.197 mM
[mM] M1 ([1]; M1=Sm, M2=Tm): 0.218 mM
[mM] Tm ([1]; M1=Sm, M2=Tm): 2.090 mM
M1/Er ([1]; M1=Sm): 0.27
[mM] M1 ([1]; M1=Tb, M2=Er): 0.225 mM
[mM] M1 ([1]; M1=Tb, M2=Tm): 0.225 mM
[mM] Tm ([1]; M1=Tb, M2=Tm): 2.342 mM
M1/Er ([1]; M1=Tb): 0.28
[mM] M1 ([1]; M1=Tm, M2=Er): 3.971 mM
[mM] M1 ([1]; M1=Tm, M2=Tm): 4.779 mM
[mM] Tm ([1]; M1=Tm, M2=Tm): 4.779 mM
M1/Er ([1]; M1=Tm): 1.73
[mM] M1 ([1]; M1=Y, M2=Er): 0.503 mM
[mM] M1 ([1]; M1=Y, M2=Tm): 0.480 mM
[mM] Tm ([1]; M1=Y, M2=Tm): 2.367 mM
M1/Er ([1]; M1=Y): 0.56
[mM] M1 ([1]; M1=Yb, M2=Er): 5.400 mM
[mM] M1 ([1]; M1=Yb, M2=Tm): 5.477 mM
[mM] Tm ([1]; M1=Yb, M2=Tm): 4.598 mM
M1/Er ([1]; M1=Yb): 1.25

O=C(O)CN1CCN(CC(=O)O)CCN(Cc2cccc3ccccc23)CCN(CC(=O)O)CC1 [L5, 2,2′,2″-(10-(naphthalene-1-ylmethyl)-1,4,7,10-tetraazacyklododekane-1,4,7-triyl)triacetic acid]
Supernatant concentration [mM] Dy ([2]; A, 1st precipitation): 1.41 mM and 1.47 mM and 1.59 mM
Supernatant concentration [mM] Tb ([2]; A, 1st precipitation, 5 mM α-HIBA): 0.77 mM and 0.86 mM
Supernatant concentration [mM] Tb ([2]; A, 1st precipitation, 5 mM α-HIBA, mean): 0.82 mM
Precipitate concentration [mM] Dy ([2]; A, 1st precipitation): 3.02 mM and 2.88 mM and 2.92 mM
Precipitate concentration [mM] Dy ([2]; A, 1st precipitation, mean): 2.94 mM
precipitate concentration [mm] Tb ([2]; A, 1st precipitation, mean): 3.74 mM
Supernatant concentration [mM] Dy ([2]; A, 1st precipitation, mean): 1.49 mM
Supernatant concentration [mM] Dy ([2]; B, 2nd precipitation): 1.27 mM and 1.30 mM and 1.26 mM
Supernatant concentration [mM] Tb ([2]; B, 2nd precipitation): 0.84 mM and 0.90 mM and 0.79 mM
Precipitate concentration [mM] Dy ([2]; B, 2nd precipitation): 2.65 mM and 2.72 mM and 2.76 mM
Precipitate concentration [mM] Dy ([2]; B, 2nd precipitation, mean): 2.71 mM
precipitate concentration [mm] Tb ([2]; B, 2nd precipitation, mean): 4.16 mM
Supernatant concentration [mM] Dy ([2]; C, 3rd precipitation): 1.10 mM and 1.20 mM and 1.08 mM
Supernatant concentration [mM] Tb ([2]; C, 3rd precipitation): 0.90 mM and 0.98 mM and 0.83 mM
Precipitate concentration [mM] Dy ([2]; C, 3rd precipitation): 2.52 mM and 2.42 mM and 2.72 mM
Precipitate concentration [mM] Dy ([2]; C, 3rd precipitation, mean): 2.55 mM
precipitate concentration [mm] Tb ([2]; C, 3rd precipitation, mean): 4.70 mM
Supernatant concentration [mM] Dy ([2]; C, 3rd precipitation, mean): 1.13 mM
Precipitate concentration [mM] Dy [3]: 4.60 mM
Precipitate concentration [mM] Nd [3]: 4.98 mM
Supernatant concentration [mM] Dy [3]: 0.37 mM
Supernatant concentration [mM] Nd [3]: 0.07 mM
solution after 20 hrs ([4]; Ln=Dy): 0.58 mM
precipitate after 20 hrs ([4]; Ln=Dy): 4.69 mM
precipitate after 20 hrs composition ([4]; Ln=Dy): 14.9%
solution after 20 hrs composition ([4]; Ln=Dy): 17.1%
solution after 20 hrs ([4]; Ln=Nd): 1.85 mM
precipitate after 20 hrs ([4]; Ln=Nd): 16.68 mM
precipitate after 20 hrs composition ([4]; Ln=Nd): 53.0%
solution after 20 hrs composition ([4]; Ln=Nd): 54.3%
solution after 20 hrs ([4]; Ln=Pr): 0.47 mM
precipitate after 20 hrs ([4]; Ln=Pr): 4.85 mM
precipitate after 20 hrs composition ([4]; Ln=Pr): 15.4%
solution after 20 hrs composition ([4]; Ln=Pr): 13.9%
solution after 20 hrs ([4]; Ln=Tb): 0.50 mM
precipitate after 20 hrs ([4]; Ln=Tb): 5.28 mM
precipitate after 20 hrs composition ([4]; Ln=Tb): 16.8%
solution after 20 hrs composition ([4]; Ln=Tb): 14.7%
